“And” between values parts separate entries of the source, which are not always exact repeats. Identical values can stand only once. The source made the active and inactive calls.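 The calls were made as follows: active = fitted curve drops past -35% activity change at a concentration no higher than twice the top valid tested dose; inconclusive = no clear call, values can overlap the other calls; inactive = the rest, including activity opposite to the expected direction.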
Tested on: not listed separately
Assay: A549 cell cytotoxicity, dose response, cytotoxicity control, luminescence, dry powder, set 12 (AID 743472)
Conditions: A549 viability, CellTiter-Glo ATP luminescence, 72 h; at 1.35 µM (top of the series)
For `COc1cc([C@@H]2c3cc4c(cc3[C@@H](O[C@@H]3O[C@@H]5CO[C@@H](C)O[C@H]5[C@H](O)[C@H]3O)[C@H]3COC(=O)[C@H]23)OCO4)cc(OC)c1O`, the activity change, negative = cytotoxicity was -9.02% (inactive).

Same assay, conditions: A549 viability, CellTiter-Glo ATP luminescence, 72 h; at 1.6 µM (top of the series)
In the case of `CCN(CCO)CCCOc1ccc2c(Nc3cc(CC(=O)Nc4cccc(F)c4)[nH]n3)ncnc2c1`, the activity change, negative = cytotoxicity is reported as -5.27% (inactive).

Same assay, conditions: A549 viability, CellTiter-Glo ATP luminescence, 72 h; at 3 µM (top of the series)
In the case of `CC[C@@]1(O)C(=O)OCc2c1cc1n(c2=O)Cc2cc3c(CN(C)C)c(O)ccc3nc2-1`, the activity change, negative = cytotoxicity is reported as -28% (inactive).

Same assay, conditions: A549 viability, CellTiter-Glo ATP luminescence, 72 h; at 6 µM (top of the series)
In the case of `Clc1ccc(-c2cnc3ccc(-c4ccccc4)cn23)cc1`, the activity change, negative = cytotoxicity is reported as 9.24% (inactive).

Same assay, conditions: A549 viability, CellTiter-Glo ATP luminescence, 72 h; at 12 µM (top of the series)
With `COc1ccc(NC(=O)Nc2ccc3c(c2)C(=O)N([C@@H](C)CO)C[C@H](C)[C@H](CN(C)Cc2ccc4c(c2)OCO4)O3)cc1` the activity change, negative = cytotoxicity was -11.8% (inactive).

Same assay, conditions: A549 viability, CellTiter-Glo ATP luminescence, 72 h; at 13.5 µM (top of the series)
With `CC(C)(O)CCc1ccc(O)c2c(=O)c3c(O)c4c(cc3oc12)O[C@H]1OC=C[C@@]41O` the activity change, negative = cytotoxicity was -4.12% (inactive).

Same assay, conditions: A549 viability, CellTiter-Glo ATP luminescence, 72 h; at 26 µM (top of the series)
In the case of `Cc1ccccc1C1C(C#N)=C(N)Oc2cc(N)ccc21` (stereo not drawn), the activity change, negative = cytotoxicity is reported as -2.49% (inactive). With `N#CC1=C(N)Oc2cc(N)ccc2C1c1ccc(Cl)cc1` (stereo not drawn) the activity change, negative = cytotoxicity was -4.23% (inactive). For `Cc1ccc(S(=O)(=O)N2CC[C@@H]3[C@@H](CO)Nc4ccc(-c5ccc(C#N)cc5)cc4[C@@H]32)cc1`, the activity change, negative = cytotoxicity was -24.8% (inactive). With `CN(C(=O)CCCOc1ccc2[nH]c(=O)ccc2c1)C1CCCCC1` the activity change, negative = cytotoxicity was -2.41% (inactive). For `COC(=O)c1ccc(C2C(C#N)=C(N)Oc3cc(N)ccc32)cc1` (stereo not drawn), the activity change, negative = cytotoxicity was 4.1% (inactive). With `CCC(C)(C)C(=O)O[C@H]1C[C@@H](C)C=C2C=C[C@H](C)[C@H](CC[C@@H]3C[C@@H](O)CC(=O)O3)[C@H]21` the activity change, negative = cytotoxicity was 2.27% (inactive). For `COc1ccc(CNc2nc(N3CCC[C@H]3CO)ncc2C(=O)NCc2ncccn2)cc1Cl`, the activity change, negative = cytotoxicity was -5.08% (inactive). In the case of `COc1ccc(C2CNC(=O)C2)cc1OC1CCCC1` (stereo not drawn), the activity change, negative = cytotoxicity is reported as 3.58% (inactive). For `Cc1ccc([N+](=O)[O-])cc1S(=O)(=O)N(C)C`, the activity change, negative = cytotoxicity was -2.86% (inactive). For `COc1ccccc1C1C(C#N)=C(N)Oc2cc(N)ccc21` (stereo not drawn), the activity change, negative = cytotoxicity was 3.41% (inactive). For `CN1c2ccc(-c3ccc(C#N)cc3)cc2[C@H]2[C@H](CCN2S(=O)(=O)c2ccc(F)cc2)[C@H]1CO`, the activity change, negative = cytotoxicity was 10.6% (inactive). With `COc1cc(Nc2ncc3c(n2)-c2ccc(Cl)cc2C(c2c(F)cccc2OC)=NC3)ccc1C(=O)O` the activity change, negative = cytotoxicity was -19.8% (inactive). With `O=C(Nc1c(Cl)cncc1Cl)c1ccc(OC(F)F)c(OCC2CC2)c1` the activity change, negative = cytotoxicity was 2.06% (inactive). In the case of `N#CC1=C(N)Oc2cc(N)ccc2C12C(=O)Nc1ccc(Br)cc12` (stereo not drawn), the activity change, negative = cytotoxicity is reported as -0.931% (inactive). In the case of `COc1ccc(C2C(C#N)=C(N)Oc3cc(N)ccc32)cc1` (stereo not drawn), the activity change, negative = cytotoxicity is reported as 0.547% (inactive). With `COc1ccc(S(=O)(=O)N(C(C)=O)c2ccc(OC(C)=O)c3ccccc23)cc1[N+](=O)[O-]` the activity change, negative = cytotoxicity was -4.12% (inactive). In the case of `Cc1ccc(C2C(C#N)=C(N)Oc3cc(N)ccc32)cc1` (stereo not drawn), the activity change, negative = cytotoxicity is reported as 2.98% (inactive). For `COc1ccc(C2=Nn3c(nnc3-c3ccccc3)SC2)cc1OC`, the activity change, negative = cytotoxicity was -5.8% (inactive). For `C[C@]1(c2nc3c(C(N)=O)cccc3[nH]2)CCCN1`, the activity change, negative = cytotoxicity was 8.64% (inactive). In the case of `CC1(C)CC(c2nc(-c3ccc4ccc(-c5ccccc5)nc4c3)c3c(N)nccn23)C1`, the activity change, negative = cytotoxicity is reported as -21.6% (inactive).

Same assay, conditions: A549 viability, CellTiter-Glo ATP luminescence, 72 h; at 50 µM (top of the series)
With `O=P1(NCCCl)OCCCN1CCCl` (stereo not drawn) the activity change, negative = cytotoxicity was 1.11% (inactive).

Same assay, conditions: A549 viability, CellTiter-Glo ATP luminescence, 72 h; at 100 µM (top of the series)
In the case of `CCC(C)C(=O)OC1CC(C)C=C2C=CC(C)C(CCC(O)CC(O)CC(=O)O)C21` (stereo not drawn), the activity change, negative = cytotoxicity is reported as -13.1% (inactive).

Same assay, conditions: A549 viability, CellTiter-Glo ATP luminescence, 72 h; at 110 µM (top of the series)
With `O=C(c1cc(Cc2n[nH]c(=O)c3ccccc23)ccc1F)N1CCN(C(=O)C2CC2)CC1` the activity change, negative = cytotoxicity was -14.2% (inactive).

Tested on: A549 viability, CellTiter-Glo ATP luminescence, 72 h
Assay: as above
Conditions: not given
For `Cc1c([C@H](C(Cl)Cl)[C@H](O)[C@H]2C[C@H](C)C(=O)O2)ccc2c1C(=O)[C@H]1[C@H]2C[C@@H](Br)[C@@]23O[C@@H](CO[C@H]2O)C[C@]13C`, the AC35 was 3.44 µM. Work on `COc1ccccc1S(=O)(=O)N1CC[C@@H]2[C@@H](CO)Nc3ccc(-c4ccc(C#N)cc4)cc3[C@@H]21` yielded an AC35 of 22.6 µM. Work on `N#CC1=C(N)Oc2ccc3ccccc3c2C1c1cccc(F)c1` (stereo not drawn) yielded an AC35 of 3.88 µM. `COc1ccc(C(=O)CC2(O)C(=O)Nc3c(Cl)ccc(Cl)c32)cc1` (stereo not drawn) showed an AC35 of 5.48 µM. `C=C([C@@H](O)[C@@H](C)O)[C@@H](OC)[C@]1(C)Cc2cc3cc(O[C@H]4CC(OC5CC(O)C(O)C(C)O5)C(O)C(C)O4)cc(O)c3c(O)c2C(=O)[C@H]1OC1CC(OC2CC(OC3CC(C)(O)C(O)C(C)O3)C(O)C(C)O2)C(O)C(C)O1` (stereo partly drawn) showed an AC35 of 0.111 µM. With `N#CC1=C(N)Oc2cc(N)ccc2C1c1cccc(Br)c1` (stereo not drawn) the AC35 was 0.488 µM. With `N#Cc1ccc(-c2ccc3c(c2)[C@H]2[C@H](CCN2S(=O)(=O)c2cccc(F)c2)[C@@H](CO)N3)cc1` the AC35 was 21.4 µM. `CN1c2ccc(-c3ccc(C#N)cc3)cc2[C@H]2[C@H](CCN2S(=O)(=O)c2cccc(F)c2)[C@H]1CO` showed an AC35 of 6.56 µM. Molecule `COc1ccc(-c2cc(NC(C)=O)c3ncc(-c4ccc(OC)c(OC)c4)n3c2)cc1` has an AC35 of 29.9 µM. `COc1ccc(C2=Nn3c(nnc3-c3ccccc3OC)SC2)cc1OC` showed an AC35 of 0.205 µM. Work on `N#CC1=C(N)Oc2cc(N)ccc2C1c1cccc(F)c1` (stereo not drawn) yielded an AC35 of 10.8 µM. `N#CC1=C(N)Oc2cc(N)ccc2C1c1ccc2ccccc2c1` (stereo not drawn) showed an AC35 of 28.4 µM. With `Cc1cccc(C2C(C#N)=C(N)Oc3cc(N)ccc32)c1` (stereo not drawn) the AC35 was 3.89 µM. `O=C(Cc1ccc(-c2ccc(OCCN3CCOCC3)cc2)cn1)NCc1ccccc1` gave an AC35 of 0.0854 µM. In the case of `COc1ccc(S(=O)(=O)N2CC[C@@H]3[C@@H](CO)Nc4ccc(-c5ccc(C#N)cc5)cc4[C@@H]32)cc1`, the AC35 is reported as 9.8 µM. `COc1ccc(S(=O)(=O)N2CC[C@@H]3[C@@H](CO)Nc4ccc(-c5cccc(C#N)c5)cc4[C@@H]32)cc1` gave an AC35 of 13.2 µM. In the case of `CCOC(=O)CCNc1cc(N2CCc3ccccc3CC2)nc(-c2ccccn2)n1`, the AC35 is reported as 37.2 µM. `COc1cccc(S(=O)(=O)N2CC[C@@H]3[C@@H](CO)Nc4ccc(-c5ccc(C#N)cc5)cc4[C@@H]32)c1` gave an AC35 of 26.4 µM. Molecule `COc1ccc(-c2ccc3c(c2)[C@H]2[C@H](CCN2S(=O)(=O)c2ccc(OC)cc2)[C@@H](CO)N3C)cc1` has an AC35 of 9.11 µM. `CN1CCN(CCOc2cc(OC3CCOCC3)c3c(Nc4c(Cl)ccc5c4OCO5)ncnc3c2)CC1` showed an AC35 of 26.1 µM. For `N#CC1=C(N)Oc2cc(N)ccc2C1c1ccccc1` (stereo not drawn), the AC35 was 22.9 µM. Work on `CN(C)c1ccc2c(c1)OC(N)=C(C#N)C2c1cccc(F)c1` (stereo not drawn) yielded an AC35 of 0.0738 µM. For `COc1ccccc1-c1nnc2n1N=C(c1ccc(O)c(O)c1)CS2`, the AC35 was 0.314 µM. With `COc1cccc2c1C(=O)c1c(O)c3c(c(O)c1C2=O)C[C@@](O)(C(=O)CO)C[C@@H]3O[C@H]1C[C@H](N)[C@H](O)[C@H](C)O1` the AC35 was 0.333 µM. With `COc1ccc(S(=O)(=O)N2CC[C@@H]3[C@H](CO)Nc4ccc(-c5ccc(C#N)cc5)cc4[C@@H]32)cc1` the AC35 was 10.7 µM. For `Cc1cc(Nc2cc(N3CCN(C)CC3)nc(Sc3ccc(NC(=O)C4CC4)cc3)n2)n[nH]1`, the AC35 was 10.2 µM. Work on `COc1ccc(-c2ccc3c(c2)[C@H]2[C@H](CCN2S(=O)(=O)c2ccc(OC)cc2)[C@@H](CO)N3)cc1` yielded an AC35 of 12.5 µM. For `Clc1ccccc1-c1nnc2n1N=C(c1ccc3c(c1)OCO3)CS2`, the AC35 was 0.945 µM. `N#CC1=C(N)Oc2cc(N)ccc2C1c1ccccc1Cl` (stereo not drawn) gave an AC35 of 32.9 µM. Molecule `COc1ccc(C2=Nn3c(nnc3-c3ccccc3F)SC2)cc1OC` has an AC35 of 6.11 µM. With `COc1ccc(C2=Nn3c(nnc3-c3ccccc3Cl)SC2)cc1OC` the AC35 was 3.06 µM. In the case of `N#CC1=C(N)Oc2cc(OC(=O)c3ccccc3)ccc2C1c1cccc(Br)c1` (stereo not drawn), the AC35 is reported as 19.4 µM. For `N#CC1=C(N)Oc2cc(O)ccc2C1c1cccc(Br)c1` (stereo not drawn), the AC35 was 11.4 µM. For `COc1cc(C2C(C#N)=C(N)Oc3cc(N(C)C)ccc32)cc2c1OCO2` (stereo not drawn), the AC35 was 0.0402 µM. With `Nc1ccn([C@@H]2O[C@H](CO)[C@H](O)C2O)c(=O)n1` (stereo partly drawn) the AC35 was 0.686 µM. `Cn1cc(-c2ccncc2)c(-c2ccc(OCc3ccc4ccccc4n3)cc2)n1` gave an AC35 of 19.3 µM. `CC[C@]1(O)CC2CN(CCc3c([nH]c4ccccc34)[C@@](C(=O)OC)(c3cc4c(cc3OC)N(C=O)[C@H]3[C@@](O)(C(=O)OC)[C@H](OC(C)=O)[C@]5(CC)C=CCN6CC[C@]43[C@@H]65)C2)C1` (stereo partly drawn) gave an AC35 of 0.285 µM. `COc1ccc(-c2cc(NC=O)c3ncc(-c4ccc(OC)c(OC)c4)n3c2)cc1` gave an AC35 of 1.18 µM. Molecule `Nc1ncnc2c1c(-c1cccc(OCc3ccccc3)c1)cn2C1CC(CN2CCCC2)C1` (stereo not drawn) has an AC35 of 13.7 µM. Molecule `N#Cc1ccc(-c2ccc3c(c2)[C@H]2[C@H](CCN2S(=O)(=O)c2ccccc2F)[C@@H](CO)N3)cc1` has an AC35 of 17 µM. Molecule `COc1ccccc1-c1nnc2n1N=C(c1ccc3c(c1)OCO3)CS2` has an AC35 of 0.102 µM. In the case of `CC(C)N1c2ccccc2C(c2ccc(F)cc2)C1/C=C/C(O)CC(O)CC(=O)O` (stereo not drawn), the AC35 is reported as 23.9 µM. Work on `Cc1nc(Nc2ncc(C(=O)Nc3c(C)cccc3Cl)s2)cc(N2CCN(CCO)CC2)n1` yielded an AC35 of 12.2 µM. Work on `C[C@@]1(C(=O)Nc2ccc(F)nc2)CCCN1c1nc(Nc2cc(C3CC3)[nH]n2)c2cccn2n1` yielded an AC35 of 3.48 µM. For `COc1ccc(S(=O)(=O)N2CC[C@@H]3[C@@H](CO)N(C)c4ccc(-c5ccc(F)cc5)cc4[C@@H]32)cc1`, the AC35 was 7.15 µM. `COc1cccc(C2C(C#N)=C(N)Oc3cc(N)ccc32)c1` (stereo not drawn) showed an AC35 of 4.76 µM. In the case of `CCc1c2c(nc3ccc(O)cc13)-c1cc3c(c(=O)n1C2)COC(=O)C3(O)CC` (stereo not drawn), the AC35 is reported as 0.579 µM. `N#CC1=C(N)Oc2cc3c(cc2C1c1cccc(Br)c1)OCO3` (stereo not drawn) showed an AC35 of 0.0624 µM. With `COc1ccc(OC)c(-c2nnc3n2N=C(c2ccc(OC)c(OC)c2)CS3)c1` the AC35 was 0.192 µM and 0.123 µM.
